For series [1], the target named is T1, AHR (Homo sapiens, UniProt P35869).
T1 sequence (P35869 11-848): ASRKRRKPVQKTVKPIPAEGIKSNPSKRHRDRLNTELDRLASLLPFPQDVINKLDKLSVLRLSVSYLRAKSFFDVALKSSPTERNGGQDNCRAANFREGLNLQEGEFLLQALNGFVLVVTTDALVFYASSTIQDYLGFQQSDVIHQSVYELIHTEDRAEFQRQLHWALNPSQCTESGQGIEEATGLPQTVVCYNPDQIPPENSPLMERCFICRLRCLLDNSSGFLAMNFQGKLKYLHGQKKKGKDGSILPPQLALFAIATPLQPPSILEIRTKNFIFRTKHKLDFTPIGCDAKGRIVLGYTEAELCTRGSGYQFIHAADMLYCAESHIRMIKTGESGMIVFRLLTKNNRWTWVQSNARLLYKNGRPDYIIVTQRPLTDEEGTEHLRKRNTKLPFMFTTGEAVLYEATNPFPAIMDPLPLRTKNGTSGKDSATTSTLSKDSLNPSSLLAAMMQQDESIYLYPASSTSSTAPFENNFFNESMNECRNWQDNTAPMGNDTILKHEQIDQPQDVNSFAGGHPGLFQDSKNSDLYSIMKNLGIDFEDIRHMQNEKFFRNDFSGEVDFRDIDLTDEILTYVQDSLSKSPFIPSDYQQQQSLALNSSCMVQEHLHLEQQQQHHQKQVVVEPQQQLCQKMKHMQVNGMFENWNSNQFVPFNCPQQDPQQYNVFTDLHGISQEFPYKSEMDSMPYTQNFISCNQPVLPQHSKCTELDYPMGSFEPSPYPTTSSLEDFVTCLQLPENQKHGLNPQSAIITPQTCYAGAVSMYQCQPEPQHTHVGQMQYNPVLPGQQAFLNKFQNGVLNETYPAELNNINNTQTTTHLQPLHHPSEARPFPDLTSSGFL
The series is described as follows: High-throughput AHR reporter gene assay in AZ-AHR cells.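 Note: luciferase activity measured in lysed AZ-AHR reporter cells after 4 h compound exposure, with 0.1% DMSO as vehicle control and 5 nM TCDD as reference agonist.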 Background: Reporter assays use an easily measured gene product as a stand-in for the process of interest.
Description: (§2) After 24 h of incubation, the cells were treated with the reference (5 nM TCDD) and tested compounds using a contact-free acoustic liquid handler ECHO 550 (Labcyte, San Jose, CA, USA). […] The cells were incubated with the tested compounds for 4 h. Thereafter, the cells were washed with PBS by Washer EL406 (BioTek, Winooski, VT, USA) and lysed by 1x gene reporter lysis buffer (E3971, Promega). After adding the substrate (D-Luciferin, L9504, Sigma) with a dispenser Multidrop Combi (ThermoFisher Scientific), the luciferase activity was measured on a multimode plate reader EnVision (PerkinElmer). The experiments were performed in technical duplicates and three biological replicates at least.

Series [2] has as its system AHR. Further details: method as in PMID 32283770. To be noted: reporter hepatic cell line, 24 h of incubation; cited from earlier work.
Series [3] has as its target T1, AHR.
Description: as §2
Series [4] concerns the target glucocorticoid receptor (GR) (Homo sapiens, UniProt P04150). Nature of the series: cell-based. The text has this: (§1) The human colon adenocarcinoma cell line LS174T was purchased from the American Type Culture Collection (ATCC). The following stably transfected reporter gene cell lines were used to estimate specific receptor activation: AZ-AHR (derived from the human hepatocellular carcinoma cell line HepG2), LS174T-AHR-luc (harboring the reporter plasmid pGL-4.27-DRE and prepared by the same protocol as AZ-AHR, AZ-GR (derived from the human cervix carcinoma cell line HeLa)), and IZ-VDRE (derived from the human colon adenocarcinoma cell line LS180). Cells were cultured in Dulbecco’s modified Eagle’s medium supplemented with 10% fetal bovine serum, 4 mM L-glutamine, 1% nonessential amino acids and antibiotics, and 100 U/mL Penicillin-Streptomycin. AIZ-AR (derived from the human prostate carcinoma cell line 22RV1) was cultivated in RPMI-1640 medium supplemented with 10% charcoal-stripped fetal bovine serum, 4 mM L-glutamine, and antibiotics 100 U/mL Penicillin-Streptomycin. PAZ-PPARg (derived from the human bladder carcinoma cell line T24/83) was cultivated in Dulbecco’s modified Eagle’s medium supplemented with 10% charcoal-stripped fetal bovine serum, 4 mM L-glutamine and antibiotics, and 100 U/mL Penicillin-Streptomycin. Cells were maintained in 75 cm^2 plastic tissue culture flasks and subcultured twice a week.

The next series deals with T2, vitamin D receptor (VDR) (Homo sapiens, UniProt P11473).
T2 construct: IZ-VDRE (derived from the human colon adenocarcinoma cell line LS180); endogenous in cells; host or cells: IZ-VDRE (LS180 stably transfected reporter line)
T2 sequence (P11473 1-427): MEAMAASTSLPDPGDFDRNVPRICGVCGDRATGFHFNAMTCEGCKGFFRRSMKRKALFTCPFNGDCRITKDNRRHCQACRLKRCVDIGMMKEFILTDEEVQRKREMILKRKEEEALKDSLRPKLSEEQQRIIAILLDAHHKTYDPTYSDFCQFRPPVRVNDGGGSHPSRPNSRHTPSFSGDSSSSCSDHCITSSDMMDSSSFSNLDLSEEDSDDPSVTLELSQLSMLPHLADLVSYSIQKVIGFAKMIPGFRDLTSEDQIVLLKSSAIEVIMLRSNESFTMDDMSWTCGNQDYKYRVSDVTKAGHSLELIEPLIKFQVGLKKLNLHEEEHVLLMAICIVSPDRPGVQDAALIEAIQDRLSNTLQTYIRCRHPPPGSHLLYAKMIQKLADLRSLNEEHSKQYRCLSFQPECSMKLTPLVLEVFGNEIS
The series is described as follows: Nuclear receptor counter-screen, luciferase reporter assay IZ-VDRE cells. It counts as cell-based. To be noted: VD3 75 nM, 24 h. Background: A counterscreen serves to expose hits that act by an unwanted route or on another target.

For series [5], the target named is T3, peroxisome proliferator-activated receptor gamma (PPARγ) (Homo sapiens, UniProt P37231).
T3 construct: PAZ-PPARg (derived from the human bladder carcinoma cell line T24/83); endogenous in cells; host or cells: PAZ-PPARg (T24/83 stably transfected reporter line)
T3 sequence (P37231 1-505): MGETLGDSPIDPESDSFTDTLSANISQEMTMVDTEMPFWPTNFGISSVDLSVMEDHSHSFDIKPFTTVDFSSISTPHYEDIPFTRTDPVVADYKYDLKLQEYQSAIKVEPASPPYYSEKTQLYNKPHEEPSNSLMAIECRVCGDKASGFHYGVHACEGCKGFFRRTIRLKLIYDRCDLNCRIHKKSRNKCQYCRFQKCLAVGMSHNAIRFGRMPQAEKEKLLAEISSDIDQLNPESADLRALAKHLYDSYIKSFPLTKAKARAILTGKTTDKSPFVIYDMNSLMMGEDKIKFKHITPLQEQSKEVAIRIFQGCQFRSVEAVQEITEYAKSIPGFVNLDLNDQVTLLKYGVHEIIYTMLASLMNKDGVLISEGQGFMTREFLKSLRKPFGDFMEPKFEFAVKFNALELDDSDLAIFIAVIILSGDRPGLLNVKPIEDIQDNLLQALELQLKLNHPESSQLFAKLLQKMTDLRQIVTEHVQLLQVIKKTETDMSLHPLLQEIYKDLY
The series is described as follows: Nuclear receptor counter-screen, luciferase reporter assay PAZ-PPARg cells. It counts as cell-based. To be noted: 15d-PGDJ 40 µM, 24 h.
Description: (§3) The following stably transfected reporter gene cell lines were used to estimate specific receptor activation: AZ-AHR (derived from the human hepatocellular carcinoma cell line HepG2) [41], LS174T-AHR-luc (harboring the reporter plasmid pGL-4.27-DRE and prepared by the same protocol as AZ-AHR, AZ-GR (derived from the human cervix carcinoma cell line HeLa)) [42], and IZ-VDRE (derived from the human colon adenocarcinoma cell line LS180) [43]. Cells were cultured in Dulbecco’s modified Eagle’s medium supplemented with 10% fetal bovine serum, 4 mM L-glutamine, 1% nonessential amino acids and antibiotics, and 100 U/mL Penicillin-Streptomycin. […]
(§4) The reporter cells were seeded into 96-well plates at a density of 2.5 × 10^4 (AZ-AHR, LS174T-AHR-luc, IZ-VDRE), 5 × 10^4 (AIZ-AR), 2.2 × 10^4 (AZ-GR), or 4 × 10^4 (PAZ-PPARg) cells in 0.2 mL of culture medium. […] After treatment, cells were lysed in a lysis buffer and the luciferase activity was measured in a 96-well plate format using the Nano-Glo Luciferase AssaySystem for the PAZ-PPARg and IZ-VDRE cell lines and the Luciferase AssaySystem for the AZ-AHR, LS174T-AHR-luc, AIZ-AR, and AZ-GR cell lines on a Tecan Infinite M200 Pro Plate Reader (Tecan, Männedorf, Switzerland).

For a further series, the system named is androgen receptor (AR). The note with it: DHT 100 nM, 24 h. As to the method: The human colon adenocarcinoma cell line LS174T was purchased from the American Type Culture Collection (ATCC). […] Cells were cultured in Dulbecco’s modified Eagle’s medium supplemented with 10% fetal bovine serum, 4 mM L-glutamine, 1% nonessential amino acids and antibiotics, and 100 U/mL Penicillin-Streptomycin. […] PAZ-PPARg (derived from the human bladder carcinoma cell line T24/83) was cultivated in Dulbecco’s modified Eagle’s medium supplemented with 10% charcoal-stripped fetal bovine serum, 4 mM L-glutamine and antibiotics, and 100 U/mL Penicillin-Streptomycin. Cells were maintained in 75 cm^2 plastic tissue culture flasks and subcultured twice a week.

The target in series [6] is T1, AHR. The series is described as follows: AHR luciferase reporter assay in LS174T-AHR-luc cells. More on the design: endogenous in cells. It counts as cell-based. To be noted: IND 274 µM (highest applied concentration), 4 h, TCDD 20 nM.
Description: as §1

The test system of a further series is AZ-AHR cells. Nature of the series: Cell viability assays (MTT, neutral red, LDH) in AZ-AHR cells. It counts as cell-based, human. The note with it: 24 h, 2.5 and 5 mM. The procedure: The highest concentrations of the tested compounds were adjusted based on their solubility. […] The MTT (3-(4,5,-dimethylthiazol-2-yl)-2,5-diphenyltetrazolium bromide) colorimetric assay was performed as previously described. The neutral red assay and LDH (Abcam, Cambridge, UK) assays were performed according to the manufacturer’s protocol. Assays were measured spectrophotometrically using a Tecan Infinite M200 plate reader (Tecan, Männedorf, Switzerland).

Series [7] deals with T1, AHR. More on the design: AZ-AHR (derived from the human hepatocellular carcinoma cell line HepG2); endogenous in cells; host or cells: AZ-AHR (HepG2 stably transfected with a reporter); method as in PMID 26235394. To be noted: 4 h of incubation, human hepatic HepG2 (40/6) reporter cells; cited from earlier work.
The mark [8] stands for this setting: AZ-AHR cells, 4 h, luciferase activity by MICT in highest concentration / by 5 nM TCDD.

Structures are written as SMILES. Like-named read-outs stand apart in the source and are kept apart here. Where only a bound is given, the exact number is not on record here.

glucocorticoid receptor (GR), sequence (P04150 whole entry): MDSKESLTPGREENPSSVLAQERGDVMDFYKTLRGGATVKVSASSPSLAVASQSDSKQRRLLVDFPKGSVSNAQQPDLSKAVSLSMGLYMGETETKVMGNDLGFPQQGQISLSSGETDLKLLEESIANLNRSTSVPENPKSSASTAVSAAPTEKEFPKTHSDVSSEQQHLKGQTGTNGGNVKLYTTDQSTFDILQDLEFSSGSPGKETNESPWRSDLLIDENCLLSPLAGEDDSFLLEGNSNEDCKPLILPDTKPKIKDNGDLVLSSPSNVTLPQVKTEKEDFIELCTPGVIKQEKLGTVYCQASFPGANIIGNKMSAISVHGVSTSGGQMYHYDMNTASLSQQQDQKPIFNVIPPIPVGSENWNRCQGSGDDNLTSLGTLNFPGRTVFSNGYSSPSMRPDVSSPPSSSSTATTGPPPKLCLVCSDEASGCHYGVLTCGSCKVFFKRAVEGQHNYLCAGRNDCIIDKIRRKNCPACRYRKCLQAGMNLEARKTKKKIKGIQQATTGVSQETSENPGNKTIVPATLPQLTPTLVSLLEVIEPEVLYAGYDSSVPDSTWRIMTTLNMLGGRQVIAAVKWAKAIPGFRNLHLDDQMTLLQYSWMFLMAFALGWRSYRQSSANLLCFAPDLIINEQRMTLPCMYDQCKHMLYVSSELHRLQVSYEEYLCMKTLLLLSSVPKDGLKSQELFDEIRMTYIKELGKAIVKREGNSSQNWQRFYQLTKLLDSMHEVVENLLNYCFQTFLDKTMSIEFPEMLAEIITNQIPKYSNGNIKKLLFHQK
Description for vitamin D receptor (VDR): as §3, §4

The term EC50 denotes the concentration needed to bring the measured effect to its halfway point. Take `O=C(O)CCc1c[nH]c2ccccc12` [IPA, indole-3-propionate]: at AHR [1], the “efficacy class of AHR agonist based on magnitude of luciferase induction” value (“efficacy class of AHR agonist based” below) is on record as “low” and the “relative efficacy, % of maximal induction to TCDD” value (“relative efficacy, %” for short) is “≈ 25%”. For the same compound, the “AHR agonist efficacy class” value in the series on AHR [2] is recorded as “no or low efficacy”. At AHR [3], this compound had an EC50 of 48.1 ± 15.2 µM.
Compound `O=Cc1c[nH]c2ccccc12` [IA, Indole-3-aldehyde] yielded an EC50 at AHR [1] of 18.9 ± 3.9 µM. In addition, the “efficacy class of AHR agonist based” value on AHR [1] (AZ-AHR cells, 4 h) is “low”. Besides, on AHR [1] (setting [8]), the “relative efficacy, %” value was “≈ 25%”. The “AHR agonist efficacy class” value in the series on AHR [2] is “no or low efficacy”.
Regarding `Cc1c[nH]c2ccccc12` [3MI, 3-methylindole], the EC50 on AHR [1] was 8.4 µM. Moreover, the “efficacy class of AHR agonist based” value at AHR [1] (AZ-AHR cells, 4 h) is reported as “medium”. In the series on AHR [2], the “AHR agonist efficacy class” value is “medium efficacy”.
Turning to `O=C(O)C(=O)Cc1c[nH]c2ccccc12` [IPY, indole-3-pyruvate], the “efficacy class of AHR agonist based” value on AHR [1] (AZ-AHR cells, 4 h) is listed as “high”. On AHR [1] (setting [8]), the “relative efficacy, %” value came to 77%. The “AHR agonist efficacy class” value in the series with AHR [2] is recorded as “high-efficacy”. Moreover, the midpoint of the response at AHR [3], the EC50, lay at 24.4 ± 12 µM.
Regarding `C[C@@H]1C[C@H]2[C@@H]3CCC4=CC(=O)C=C[C@]4(C)[C@@]3(F)[C@@H](O)C[C@]2(C)[C@@]1(O)C(=O)CO` [DEX, dexamethasone], the fold induction at 0.1 µM in [4] stood at 22.
As for `O=C(O)/C=C/c1c[nH]c2ccccc12` [IAC, indole-3-acrylate], the “efficacy class of AHR agonist based” value on AHR [1] (AZ-AHR cells, 4 h) is recorded as “high”. Besides, at AHR [1] (setting [8]), the “relative efficacy, %” value was determined as 68%. In addition, the “AHR agonist efficacy class” value with AHR [2] is given as “medium efficacy”. The midpoint of the response on AHR [3], the EC50, lay at 8.4 µM.
In the case of `C=C1CC[C@H](O)C/C1=C/C=C1\CCC[C@]2(C)[C@@H]([C@H](C)CCCC(C)C)CC[C@@H]12` [VD3, cholecalciferol], at vitamin D receptor (VDR), the fold induction at 0.075 µM turned out to be 65.
On to `OCCc1c[nH]c2ccccc12` [IET, indole-3-ethanol], for which it took 29.3 ± 8.2 µM to reach a half-maximal effect at AHR [1] (EC50). Also, at AHR [1] (AZ-AHR cells, 4 h), the “efficacy class of AHR agonist based” value was “medium”. Besides, the “AHR agonist efficacy class” value in the series on AHR [2] is reported as “medium efficacy”.
In the case of `Clc1cc2c(cc1Cl)Oc1cc(Cl)c(Cl)cc1O2` [TCDD, 2,3,7,8-tetrachlorodibenzo-p-dioxin, reference compound], the fold induction at 0.005 µM at AHR [1] (read-out: fold induction of luciferase activity, AZ-AHR cells, 4 h, TCDD 5 nM, over control cells) was approximately 200.
For the compound `NCCc1c[nH]c2ccccc12` [TA, tryptamine], at AHR [1], the EC50 was determined as 13.8 µM and the “efficacy class of AHR agonist based” value is listed as “medium”. Besides, the “AHR agonist efficacy class” value with AHR [2] is reported as “medium efficacy”.
As to `CCCCC/C=C/C=C1/C(=O)C=C[C@@H]1C/C=C\CCCC(=O)O` [15d-PGDJ, 15-Deoxy-δ12,14-Prostaglandin J2], the fold induction in series [5] turned out to be 3 fold.
For the compound `C[C@]12CCC(=O)C[C@@H]1CC[C@@H]1[C@@H]2CC[C@]2(C)[C@@H](O)CC[C@@H]12` [DHT, 5α-dihydrotestosterone], the fold induction in the series on androgen receptor (AR) was determined as 20 fold.
With `c1ccc2[nH]ccc2c1` [IND, Indole], at AHR [1], the EC50 stood at 37.6 ± 14.4 µM, the “efficacy class of AHR agonist based” value is recorded as “high” and the “indole concentrations under which AHR was saturated” value is listed as more than 20 µM. Also, the “AHR activation compared with TCDD” value at AHR [6] is on record as “stronger than TCDD”. For the same compound, in the series with AHR [2], the “AHR agonist efficacy class” value is recorded as “high-efficacy” and the 50% effective concentration (EC50) is approximately 1500 µM. Also, the “toxicity at very high concentrations” value with AZ-AHR cells is given as “toxic”. Besides, the EC50 at AHR [7] was approximately 3 µM.
For `O=C(O)C(O)Cc1c[nH]c2ccccc12` (centres unmarked) [ILA, indole-3-lactate], in the series with AHR [2], the “AHR agonist efficacy class” value was “no or low efficacy”.
Regarding `O=C(O)Cc1c[nH]c2ccccc12` [IAA, indole-3-acetate], in the series with AHR [2], the “AHR agonist efficacy class” value was “no or low efficacy”.
Regarding `NC(=O)Cc1c[nH]c2ccccc12` [IAD, indole-3-acetamide], a half-maximal effect on AHR [1] (EC50) was put at 4.5 µM. Besides, the “efficacy class of AHR agonist based” value on AHR [1] (AZ-AHR cells, 4 h) is “high”. Besides, the “relative efficacy, %” value at AHR [1] (setting [8]) was determined as 84%. The “AHR agonist efficacy class” value with AHR [2] is given as “high-efficacy”.

The values are drawn from PMC9505659, “Mixture Effects of Tryptophan Intestinal Microbial Metabolites on Aryl Hydrocarbon Receptor Activity” (International Journal of Molecular Sciences, 2022).
